A short description of data set [1]: Pharmacokinetics of ISDF in rats: baicalin in plasma. The data set is classed as in vivo, Sprague–Dawley rats. As to conditions: oral ISDF 18.90 g/kg. On the procedure:
The rats were split into two groups, with 6 animals each: (a) an untreated control group, and (b) a group that received ISDF at a dosage of 18.90 g/kg. The rats were fasted overnight but had access to distilled water. Blood samples, around 0.4 mL, were harvested from the orbital bleeding while they were under anaesthesia with isoflurane. The blood samples were collected at several time points (5, 15, 30, 60, 120, 240, 480, and 1440 min) after the oral administration of ISDF to the rats. The blood was then centrifuged at 5000 rpm for 20 min (at 4 °C) to separate the plasma (upper) and blood cells (lower). The plasma (0.2 mL) was added with […] KH2PO4 (0.2 mL) and 1 mL methanol and acetonitrile (1:1) and vortexed for 10 min to precipitate protein, and then centrifugated at 10,000 rpm for five min to collect the supernatant. The supernatant was filtered, dried under nitrogen and then re-dissolved in methanol (0.2 mL) and stored at 4 °C [18]. The HPLC method was used to identify and quantify baicalin in plasma and berberine in erythrocytes, as previously published. All the data were shown as mean ± SEM. One-way ANOVA followed by the Bonferroni test was performed using GraphPad Prism v9.0. Statistical significance between experimental groups was considered when p < 0.05. The pharmacokinetics profile of ISDF was calculated using Drug and Statistics (DAS, China) software v2.0.

Data set [2] is described as follows: Pharmacokinetics of ISDF in rats: berberine in erythrocytes. It counts as in vivo, Sprague–Dawley rats. As to conditions: oral ISDF 18.90 g/kg. The method, then:
The rats were split into two groups, with 6 animals each: (a) an untreated control group, and (b) a group that received ISDF at a dosage of 18.90 g/kg. The rats were fasted overnight but had access to distilled water. Blood samples, around 0.4 mL, were harvested from the orbital bleeding while they were under anaesthesia with isoflurane. The blood samples were collected at several time points (5, 15, 30, 60, 120, 240, 480, and 1440 min) after the oral administration of ISDF to the rats. The blood was then centrifuged at 5000 rpm for 20 min (at 4 °C) to separate the plasma (upper) and blood cells (lower). The blood cells were washed thrice with cold 0.9% saline, and then centrifuged at 3500 rpm for five min. The resulting erythrocytes were suspended in cold 0.9% saline (0.5 mL). Afterwards, the erythrocytes were mixed with an equal volume of 15% hydrochloric acid and heated at 60 ℃ for 6 h. They were then centrifugated at 12,000 rpm for 10 min to collect the supernatant, which was filtered and dried under nitrogen. Finally, it was re-dissolved with 0.2 mL methanol. The HPLC method was used to identify and quantify baicalin in plasma and berberine in erythrocytes, as previously published. All the data were shown as mean ± SEM. One-way ANOVA followed by the Bonferroni test was performed using GraphPad Prism v9.0. Statistical significance between experimental groups was considered when p < 0.05. The pharmacokinetics profile of ISDF was calculated using Drug and Statistics (DAS, China) software v2.0.

The subject of data set [3] is IMQ-induced mouse psoriasis model. Description: IMQ-induced mouse psoriasis model: body weight, dorsal skin thickness, PASI, epidermal thickness. The data set is classed as in vivo, Balb/c mice. The method, then: (§1) A total of 48 Balb/c mice were randomly assigned to: (a) normal control group (NC); (b) IMQ group; (c) IMQ plus dexamethasone (DXM, as the positive control, 3 mg/kg) group; and (d-f) IMQ plus ISDF (3.15, 6.30 and 9.45 g/kg) groups. All mice, except the NC group, were topically dosed with 62.5 mg Aldara (iNova pharmaceuticals, Australia) daily on the shaved dorsal skin. After the seven-day sensitization of IMQ, the psoriasis symptoms appeared on the dorsal area. Between day 8 and day 22, Aldara cream was applied once every three days for a total of six applications, with each application consisting of 62.5 mg of the cream being applied to the same area. ISDF and DXM were suspended in 0.5% CMC-Na and orally given to the mice once daily for two weeks. Treatments were initiated seven days after the first IMQ sensitization. The mice in the NC group and the IMQ group were administered with only the vehicle for two weeks. (Fig. 1A).
(§2) The severity of psoriatic lesions on the dorsal area of mice was assessed by psoriasis area and severity index (PASI). The researcher scored the degree of erythema and skin scaling on a scale of zero to four, where 0: no symptoms, 1: slight, 2: moderate, 3: severe, and 4: very severe. The dorsal skin thickness was measured using an electronic vernier caliper which was placed on the middle line of the dorsal area.
(§3) The dorsal skin tissues were harvested and fixed in 4% paraformaldehyde (PFA) for one day and then embedded in paraffin, followed by section, deparaffinization and rehydration. Five-micrometre sections of dorsal skin were stained with hematoxylin & eosin and observed through a light microscope (Zeiss AxioObserver Z1, Germany) to assess histopathological changes.

Data set [4] deals with IL-17A, IL-22, IL-6, IL-4. Description: ELISA of inflammatory cytokines in serum and dorsal skin of IMQ-induced mice. It counts as in vivo, Balb/c mice. As to conditions: IMQ model; DXM 3 mg/kg oral; vs IMQ group. The method, then: as §1
(§4) After the last drug treatment, blood samples were harvested and stored at room temperature for one hour, and then centrifuged at 3500 rpm for 20 min. The ELISA kits were used to collect the supernatant and determine the contents of IL-17A (ab199081), IL-22 (ab223857), IL-6 (ab222503) (Abcam, USA) and IL-23 (BMS6017, Thermo Fisher Scientific, USA). After being sacrificed, mouse skin tissues were collected, homogenized with cell extract buffer from Abcam, USA, and centrifuged at 12,000 rpm for 30 min (at 4 °C). The skin samples were analyzed for total protein contents using a […] assay kit. The concentrations of IL-4, IL-17A, IL-22 and IL-23 in the supernatant were determined.

Data set [5] has as its system gene expression of IL-4, IL-6, IL-1β and TNF-α. Briefly: Real-time PCR on dorsal skin tissues of IMQ-induced mice. It counts as in vivo, Balb/c mice. The settings on record: IMQ model; DXM 3 mg/kg oral. The method, then:
as §1
The same experimental procedure was used as described in our previous study. In the present study, we conducted Mouse TaqMan gene expression assays using the following assay IDs: IL-4 (Mm00445259_m1), IL-6 (Mm00446190_m1), IL-1β (Mm00434228_m1), TNF-α (Mm00443258_m1) and β-actin (Mm02619580_g1).
Background: Quantitative PCR measures a nucleic acid by following its amplification.

For data set [6], the system named is IL-23-induced mouse psoriasis model. Description: IL-23-induced mouse psoriasis model: body weight, dorsal skin thickness, PASI, epidermal thickness. As to conditions: IL-23 model, DXM 3 mg/kg oral. It counts as in vivo, C57 mice. The method, then: (§5) A total of 48 C57 mice were randomly assigned to: (a) NC group; (b) IL-23 group; (c) IL-23 plus DXM (3 mg/kg) group; and (d–f) IL-23 plus ISDF (3.15, 6.30 and 9.45 g/kg) groups. Firstly, mice were pre-treated with ISDF or DXM before IL-23 injection. 0.5% CMC-Na was used to suspend ISDF and DXM which were orally given to mice once daily for two weeks, and the mice in the NC group and the IL-23 group were treated with only the vehicle for two weeks. The IL-23 administration was initiated 7 days post the first ISDF/DXM treatment. From day 8, mice concurrently orally received with ISDF/DXM treatment and intradermal injections of recombinant mouse IL-23 (Biolegend, USA) in two locations on the shaved dorsal skin at 1 μg/mouse/day using a 30-gauge needle for seven days. Sterile saline was used as the vehicle control for the NC group. After the seven-day sensitization of IL-23, the psoriasis symptoms appeared on the dorsal area of the mice. The weight of the mice and their dorsal skin thickness was monitored (on day 1, 7, and 14). On the last day, the scoring of the skin psoriasis severity was determined according to PASI after the last drug treatment (Fig. 2A).
as §2, §3

In another data set the test system is IL-17A, IL-22, IL-23. Description: ELISA of cytokines in serum and injected skin of IL-23-induced mice. The data set is classed as in vivo, C57 mice. As to conditions: IL-23 model; DXM 3 mg/kg oral; vs IL-23 group. The method, then: as §5, §4
Where [7] appears, read: Sprague-Dawley, rat, 18.9 g/kg, read-out: Area under the curve (AUC0-∞).
Where [8] appears, read: Sprague-Dawley, rat, 18.9 g/kg, read-out: Mean residence time (MRT0-t).
[9] abbreviates: Sprague-Dawley, rat, 18.9 g/kg, read-out: The maximum concentration (Cmax).

Structures are written as SMILES.

In the case of `O=C(O)[C@H]1O[C@@H](Oc2cc3oc(-c4ccccc4)cc(=O)c3c(O)c2O)[C@H](O)[C@@H](O)[C@@H]1O` [Baicalin, baicalin], in data set [1] (setting [7]), the AUC(0-inf) came out at 10000 ± 810 ng·h/mL. In data set [1] (setting [8]), the MRT last was 7.98 ± 0.61 h. The Cmax in data set [1] (setting [9]) came out at 670 ± 60 ng/mL. Besides, in data set [1], the “The time required for drug concentration to decrease by 50% (t1/2)” value worked out at 14.06 ± 3.25 h and the “Time to reach Cmax (Tmax)” value was 2.01 ± 0.28 h.

For `COc1ccc2cc3[n+](cc2c1OC)CCc1cc2c(cc1-3)OCO2` [Berberine, berberine], in data set [2] (setting [7]), the AUC(0-inf) is 24200 ± 17400 ng·h/mL. The MRT last in data set [2] (setting [8]) turned out to be 9.24 ± 1.31 h. For the same compound, the Cmax in data set [2] (setting [9]) is 1440 ± 710 ng/mL. For the same compound, in data set [2], the “The time required for drug concentration to decrease by 50% (t1/2)” value came out at 10.77 ± 5.80 h and the “Time to reach Cmax (Tmax)” value is listed as 2.33 ± 1.52 h.

Regarding `C[C@@H]1C[C@H]2[C@@H]3CCC4=CC(=O)C=C[C@]4(C)[C@@]3(F)[C@@H](O)C[C@]2(C)[C@@]1(O)C(=O)CO` [DXM, dexamethasone], the Body weight entry in data set [3] (DXM 3 mg/kg oral once daily, days 14 and 21, vs NC group) is “remarkable decrease”. Besides, the “Decrease in PASI score” value in data set [3] (DXM 3 mg/kg oral, day 21, vs IMQ group) is recorded as 79.41%. The “Reduction of dorsal skin thickness” value in data set [3] (DXM 3 mg/kg oral, two-week treatment, vs IMQ group) came out at 51.69%. The “Decrease of epidermal thickness” value in data set [3] (DXM 3 mg/kg oral, vs IMQ group) stood at 52.75%. In data set [4], the “Decrease of serum IL-17A” value came to 91.29%, the “Reduction of IL-17A content in dorsal skin” value is reported as 75.98%, the “Reduction of serum IL-6” value was 88.91% and the “Reduction of serum IL-22” value is given as 67.47%. The “Gene expression of IL-4, IL-6, IL-1β and TNF-α in skin” value in data set [5] is reported as “substantially down-regulate”. Moreover, in data set [6], the Body weight entry is “significantly induced a body weight reduction”. In addition, in data set [6] (day 14, vs IL-23 group), the “Decrease of dorsal skin thickness” value is reported as 55.14% and the “Reduction of PASI score” value is on record as 85.24%. In addition, in data set [6] (vs IL-23 group), the “Decrease of epidermal thickness” value came to 72.26%. For the same compound, in the data set with IL-17A, IL-22, IL-23, the “Decrease of IL-23 level in the injected skin” value is recorded as 43.34%, the “Reduction of serum IL-17A” value is on record as 62.20% and the “Reduction of serum IL-22 content” value is on record as 39.12%.

These data come from article PMC11165727, “Improvement effects of a novel Chinese herbal formula in imiquimod and IL-23-stimulated mouse models of psoriasis” (Chinese Medicine, 2024).
